According to patent US20080241177A1 (priority 2003, published 2008):
Entries after “also recorded” stand apart in the source; their conditions may differ.

Experiments:
[1] = Delayed type hypersensitivity (DTH) testing; assay type: in vivo, human; details: for Induration area, DTH testing: 48 hours following intradermal injection of individual peptide, after four vaccinations; for Number of patients with a peptide-specific DTH response: six trial patients who underwent DTH testing
Experimental: Delayed type hypersensitivity (DTH) testing was carried out 1 month after the final vaccination. […] Induration of […]10 mm^2 at 48 hours after injection was considered positive.

[2] = test system: serum antibodies; assay: ELISA for serum antibodies specific for the individual vaccine peptides, human sera; details: for Number of individuals with a humoral response to the vaccine peptides, Cancer controls n = 54 / Percent of individuals with a humoral response to the vaccine peptides, Cancer controls n = 54: non-trial cancer controls, sera 1:25 dilution; for Number of individuals with a humoral response to the vaccine peptides, Trial subjects n = 6 / Percent of individuals with a humoral response to the vaccine peptides, Trial subjects n = 6: trial subjects who completed four vaccinations, detectable response at any time point considered positive
[3] = test system: serum antibodies; assay: Immunization of sheep with the vaccine, anti-peptide ELISA; details: for Response higher in the first immunized sheep, on average: first versus second sheep; for Response to peptide using the polyclonal sheep sera or rabbit sera: polyclonal sheep sera (FIG. 2A) or rabbit sera (data not shown); for Polyclonal sera with reactivity to peptide obtained from immunized sheep: 200 μg peptide mixture in CpG DNA adjuvant, prime and boost
[4] = normal controls, n = 30, not vaccinated

| Substance | Induration area, DTH testing ([1]; patient 012) | Induration area, DTH testing ([1]; patient 014) | Induration area, DTH testing ([1]; patient 015) | Induration area, DTH testing ([1]; patient 016) | Induration area, DTH testing ([1]; patient 017) | Induration area, DTH testing ([1]; patient 018) | Number of patients with a peptide-specific DTH response [1] | Number of individuals with a humoral response to the vaccine peptides, Cancer controls n = 54 [2] | Number of individuals with a humoral response to the vaccine peptides, Normal controls n = 30 [2, 4] | Number of individuals with a humoral response to the vaccine peptides, Trial subjects n = 6 [2] | Response higher in the first immunized sheep, on average [3] [%] | Response to peptide using the polyclonal sheep sera or rabbit sera [3] | Polyclonal sera with reactivity to peptide obtained from immunized sheep ([3]; two sheep) | other results |
| --- | --- | --- | --- | --- | --- | --- | --- | --- | --- | --- | --- | --- | --- | --- |
| H-PKLLIYKASSLESGVPSR-OH [HIV-L2, reference compound] | Neg (Neg indicates that induration (if any) was less than 10 mm^2) | Neg (Neg indicates that induration (if any) was less than 10 mm^2) | Neg (Neg indicates that induration (if any) was less than 10 mm^2) | Neg (Neg indicates that induration (if any) was less than 10 mm^2) | Neg (Neg indicates that induration (if any) was less than 10 mm^2) | Neg (Neg indicates that induration (if any) was less than 10 mm^2) |  |  |  |  |  |  |  |  |
| H-AGLFCQQYYTTPLTFGGGT-OH [Peptide 4] | Neg (Neg indicates that induration (if any) was less than 10 mm^2) | Neg (Neg indicates that induration (if any) was less than 10 mm^2) | 13 mm^2 | Neg (Neg indicates that induration (if any) was less than 10 mm^2) | Neg (Neg indicates that induration (if any) was less than 10 mm^2) | Neg (Neg indicates that induration (if any) was less than 10 mm^2) | one | 0 | 0 | 0 | 50 | positive responses | obtained from both sheep | Number of individuals with a humoral response to the vaccine peptides, Trial subjects n = 6 ([2]; listed as peptide 4): No patient demonstrated a response |
| H-GVYYCMQGLQTPYTFGEGT -OH (H-GVYYCMQGLQTPYTFGEGT-OH) [Peptide 8] | 113 mm^2 | Neg (Neg indicates that induration (if any) was less than 10 mm^2) | 38 mm^2 | Neg (Neg indicates that induration (if any) was less than 10 mm^2) | 44 mm^2 | Neg (Neg indicates that induration (if any) was less than 10 mm^2) | three | 0 | 0 | 2 |  |  | obtained from both sheep | Isotype of peptide-specific serum antibodies ([2]; subject 012): undetectable; Isotype of peptide-specific serum antibodies ([2]; subject 015): undetectable; Percent of individuals with a humoral response to the vaccine peptides, Trial subjects n = 6 [2]: 33.3%; Number of individuals with a humoral response to the vaccine peptides, Trial subjects n = 6 ([2]; listed as peptide 8): two; Serum antibody titres, first versus second immunized sheep ([3]; two sheep): equivalent |
| H-KLLIHWASTRESGVPDR-OH [Peptide 3] |  |  |  |  |  |  | responses were observed in at least one individual for all of the peptides, except for peptides 3 and 6 | 0 | 1 | 0 |  | positive responses | neither animal; also recorded: could not be generated | Percent of individuals with a humoral response to the vaccine peptides, Normal controls n = 30 [2, 4]: 3.3%; Number of individuals with a humoral response to the vaccine peptides, Trial subjects n = 6 ([2]; listed as peptide 3): No patient demonstrated a response |
| H-YFCSRVKAGGPDYWGQGT-OH [Peptide 6] |  |  |  |  |  |  | responses were observed in at least one individual for all of the peptides, except for peptides 3 and 6 | 0 | 0 | 0 | 50 | positive responses | obtained from both sheep | Number of individuals with a humoral response to the vaccine peptides, Trial subjects n = 6 ([2]; listed as peptide 6): No patient demonstrated a response |
| H-AVYYCLLQALKHWGQGT-OH [Peptide 2] | 189 mm^2 | 20 mm^2 | 86 mm^2 | Neg (Neg indicates that induration (if any) was less than 10 mm^2) | 71 mm^2 | 38 mm^2 | five | 1 | 0 | 4 | 50 |  | obtained from both sheep | Percent of individuals with a humoral response to the vaccine peptides, Cancer controls n = 54 [2]: 1.9%; Isotype of peptide-specific serum antibodies ([2]; subject 012): IgG1; Isotype of peptide-specific serum antibodies ([2]; subject 014): IgG1 and IgG3; Isotype of peptide-specific serum antibodies ([2]; subject 015): IgG1 and IgG3; Isotype of peptide-specific serum antibodies ([2]; subject 016): IgG4; Percent of individuals with a humoral response to the vaccine peptides, Trial subjects n = 6 [2]: 66.7%; Number of individuals with a humoral response to the vaccine peptides, Trial subjects n = 6 ([2]; listed as peptide 2): four of the six |
| H-LLIYLGSTRASGVPDR-OH [Peptide 7] | 16 mm^2 | Neg (Neg indicates that induration (if any) was less than 10 mm^2) | Neg (Neg indicates that induration (if any) was less than 10 mm^2) | 39 mm^2 | Neg (Neg indicates that induration (if any) was less than 10 mm^2) | Neg (Neg indicates that induration (if any) was less than 10 mm^2) | two | 1 | 0 | 0 |  | positive responses | neither animal; also recorded: could not be generated | Percent of individuals with a humoral response to the vaccine peptides, Cancer controls n = 54 [2]: 1.9%; Number of individuals with a humoral response to the vaccine peptides, Trial subjects n = 6 ([2]; listed as peptide 7): No patient demonstrated a response |
